Results as given in patent US9790188B2, “Benzimidazole derivatives and uses thereof” (Whitehead Institute for Biomedical Research, priority 2013, dated 2017).

What was measured:
α-syn = assay: Yeast growth rescue from α-syn toxicity (dose-response); type: cell-based; details: relative to parent ABI1
Experimental: For galactose-induction experiments, overnight cultures were grown in CSM/2% glucose to saturation and diluted 1:20 into CSM/2% raffinose for ˜2 generations. Cultures were then diluted into CSM/2% galactose at an optimum OD600 for the experiment (see ‘Growth assays’).
(§1) Source plates were assembled in 96 well plates using multichannel pipettes to dilute rows in 1.6-fold serial dilutions of CSMGal. […] For α-syn, the final starting OD600 was 0.02. Drug concentration ranges varied depending on efficacy, growth inhibition, and solubility in media. A Tecan EvoFreedom liquid handling robot was then used to transfer culture from 96 to 384 well format with each well being represented four times. Final well volume was 35 μL. Plates were then incubated in humidified containers at 30° C. for either 24 or 40 hours. Plates were then read with a Tecan Saphire plate reader at OD600.
(§2) Raw OD600 values were transformed to “Relative Growth” in WT cells or “% Maximum Rescue” in α-syn experiments. In WT cells, the well background was subtracted and all values were then normalized to 100% for the untreated condition. In α-syn rescue experiments, the well background was subtracted and the maximum rescue in the particular experiment was normalized to 100%.

WT yeast = assay: Growth inhibition of wild-type yeast (dose-response); type: cell-based; details: relative to parent ABI1
Experimental: as §1, §2

Which results are given for `Cc1cc(C)cc(-n2cnc3cc(C(=O)NCc4ccccc4Cl)ccc32)c1` [ABI3, N-(2-chlorobenzyl)-1-(3,5-dimethylphenyl)-1H-benzo[d]imidazole-5-carboxamide]?
shift of concentrations for efficacy against α-syn (α-syn): higher; shift of concentrations for ability to inhibit growth (WT yeast): higher
